Source: article PMC11984407, “A natural small molecule isoginkgetin alleviates hypercholesterolemia and atherosclerosis by targeting ACLY” (Theranostics, 2025)

Columns and labels:
ACLY = target: T1, ACLY (Mesocricetus auratus, UniProt A0A1U7RF50); assay: ACLY activity in vivo, hamster liver extracts (MDH-coupled method)
T1 construct: from tissue; host or cells: liver of hamsters and of Ldlr-/- hamsters dosed with ISOGK
T1 sequence (A0A1U7RF50 1-1101): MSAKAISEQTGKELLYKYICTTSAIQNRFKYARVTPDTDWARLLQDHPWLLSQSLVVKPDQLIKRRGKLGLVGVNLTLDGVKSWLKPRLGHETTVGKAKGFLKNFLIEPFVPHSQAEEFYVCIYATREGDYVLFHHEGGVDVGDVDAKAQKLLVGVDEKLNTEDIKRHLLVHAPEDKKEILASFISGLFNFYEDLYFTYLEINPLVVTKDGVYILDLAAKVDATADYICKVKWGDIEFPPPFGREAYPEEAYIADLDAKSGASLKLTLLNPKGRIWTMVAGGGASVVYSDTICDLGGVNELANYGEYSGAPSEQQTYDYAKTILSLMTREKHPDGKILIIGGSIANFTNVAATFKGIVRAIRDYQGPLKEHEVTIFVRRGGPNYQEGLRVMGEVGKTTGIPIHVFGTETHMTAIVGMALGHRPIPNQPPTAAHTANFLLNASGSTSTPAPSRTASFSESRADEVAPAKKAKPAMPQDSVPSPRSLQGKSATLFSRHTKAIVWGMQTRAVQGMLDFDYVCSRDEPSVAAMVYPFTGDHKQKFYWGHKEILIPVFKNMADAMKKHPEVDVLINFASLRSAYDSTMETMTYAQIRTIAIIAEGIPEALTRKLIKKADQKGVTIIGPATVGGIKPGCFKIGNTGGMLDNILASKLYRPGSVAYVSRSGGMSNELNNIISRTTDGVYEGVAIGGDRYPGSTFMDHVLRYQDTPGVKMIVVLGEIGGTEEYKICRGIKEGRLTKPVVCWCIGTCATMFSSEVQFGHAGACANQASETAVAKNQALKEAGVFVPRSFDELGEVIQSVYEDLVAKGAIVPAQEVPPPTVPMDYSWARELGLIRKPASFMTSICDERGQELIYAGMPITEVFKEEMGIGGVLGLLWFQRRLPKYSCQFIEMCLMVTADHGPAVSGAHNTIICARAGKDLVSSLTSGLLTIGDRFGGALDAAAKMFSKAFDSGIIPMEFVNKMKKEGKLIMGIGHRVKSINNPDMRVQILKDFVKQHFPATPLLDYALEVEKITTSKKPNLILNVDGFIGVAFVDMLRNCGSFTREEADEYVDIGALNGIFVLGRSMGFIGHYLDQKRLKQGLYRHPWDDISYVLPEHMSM
Experimental: The activity of the ACLY enzyme was assayed utilizing malate dehydrogenase (MDH)-coupled method kits (BC4240, Solarbio, Beijing, China). In summary, liver extracts were incubated in a reaction buffer comprising 20 mM citrate, 10 mM MgCl₂, 10 mM DTT, 0.5 U/ml of malic dehydrogenase, 0.33 mM CoASH, and 0.14 mM NADH, both in the presence and absence of 5 mM ATP. The quantity of oxaloacetate produced by ACLY catalysis was determined by measuring the alteration in absorbance at 340 nm, which corresponds to the depletion of NADH during the MDH-catalyzed reaction. After accounting for background variations in absorbance in the absence of ATP, the relative ACL activities were computed by normalizing the data to the weight of the liver tissue.

AMPK = assay: Western blot of p-AMPK in AML12 and HepG2 cells; format: cell-based; conditions: 5 µM, 12 h after 50 µM palmitic acid
Experimental: Western blotting was performed as previously described. In brief, whole-cell lysates from cultured cells and animal tissue were prepared using 1× sample buffer, followed by boiling at 95 °C for 10 min. Subsequently, SDS-PAGE was employed to separate the samples, which were then transferred onto a nitrocellulose membrane (Pall, NY, USA). Subsequently, the membrane was incubated in a blocking buffer for one h at room temperature. Following the removal of the blocking buffer, the blots were incubated with primary antibodies (1:1,000 dilution) at 4 °C overnight. The membrane was washed thrice for 10 min each, using 1× Tris-buffered saline with 0.1% Tween-20 (TBST). Subsequently, the membranes were incubated with IRDye® 680RD Goat anti-Mouse IgG (H + L) or IRDye® 800CW Goat anti-Rabbit IgG (H + L) (1:10,000 dilution, LI-COR, Lincoln, Nebraska, USA) at room temperature for 1 h. Visualization of the blots was carried out using the Li-COR CLx infrared imaging system. GAPDH (60004-1-Ig, Proteintech, Chicago, IL, USA), ACLY (67166-1-Ig, Proteintech, Chicago, IL, USA), LDLR (10785-1-AP, Proteintech, Chicago, IL, USA), β-Actin (66009-1-Ig, Proteintech, Chicago, IL, USA), AMPK (10929-2-AP, Proteintech, Chicago, IL, USA), p-AMPK^T172 (2535, Cell Signaling Technology, Danvers, MA, USA).

[1] = system: primary mouse hepatocytes (PMH); assay: Nile red staining of PMH from Acly flox/flox mice infected with Cre adenovirus; format: cell-based; conditions: 5 µM, 12 h
Experimental: For the Nile Red staining procedure, primary mouse hepatocytes were treated with IOSGK at varying concentrations for a period of 12 h. Subsequently, the cells were fixed with 4% paraformaldehyde (PFA) and stained with Nile Red ([…], Invitrogen, Carlsbad, CA, USA). The intracellular accumulation of lipids was visualized and quantified using a laser scanning confocal microscope (TCS SP8; Leica, Wetzlar, Germany). Male and female Acly^flox/flox mice were used to isolate PMH and infected with adenovirus vectors carrying either Cre or GFP for 24 h.

liver gene expression = assay: RNA sequencing of Apoe-/- mouse liver; format: in vivo; conditions: heat map
Text: Total RNA was extracted, and cDNA libraries were generated to investigate differences in gene expression. The Illumina sequencing platform was employed for single-end sequencing of the libraries. HISAT2 software (version 2.0.5) was utilized to align the reads to the mouse reference genome in Ensembl. StringTie (version 1.3.3b) was employed to compute raw counts of genes. DESeq2 (version 1.20.0) software was used to normalize the count matrix. Gene sets were established based on each KEGG pathway term and the associated genes, with GSEA conducted using the Java GSEA platform (version 3.0). This analysis utilized the 'Signal2Noise' metric for ranking and adopted a permutation type specific to 'gene sets'. Gene sets displaying FDR values below 0.25 were deemed to hold statistical significance. The expression patterns of pivotal genes within the pathways enriched by GSEA were visually represented through heatmaps, generated by employing the "pheatmap" package within the R programming environment. The relevant data can be accessed via the Gene Expression Omnibus database, using the following accession number: GSE261858.

Structure (SMILES): COc1ccc(-c2cc(=O)c3c(O)cc(O)c(-c4cc(-c5cc(=O)c6c(O)cc(O)cc6o5)ccc4OC)c3o2)cc1 [ISOGK, Isoginkgetin]
- ACLY enzyme activity in liver tissue (ACLY; Ldlr-/- hamsters): significantly inhibits ACLY activity
- ACLY enzyme activity in liver tissue (ACLY; high cholesterol diet hamsters, 4 weeks): significantly inhibits ACLY activity
- p-AMPK protein expression (AMPK): activate AMPK
- lipid deposition in PMH when ACLY abrogated or depleted (Nile red) [1]: did not further diminish lipid deposition
- expression of fatty acid and cholesterol biosynthesis genes Srebf1, Fasn, Acaca, Cyp51 (liver gene expression): significantly downregulated
